Source: patent publication US20250127898A1, “PHOTODYNAMIC THERAPY AND DIAGNOSIS” (RMW CHO Group Limited, priority 2021, published 2025)
Where a name gives a salt, the structure may show the parent alone. Read-outs that look alike come from different tables or passages of the source. Where a SMILES comes first, the peptide text is derived from it. The star is where a group is joined. X1 = CCC1=C(C)c2cc3[nH]c(cc4nc(c(C)c5cc(C)c(cc1n2)[nH]5)[C@@H](CCC(=O)*)[C@@H]4C)c(C)c3CC

How the values were obtained:
[1] = system: Human ovarian cancer cell line SKOV3; assay: Phototoxicity in SKOV3 cells after 660 nm laser or LED activation (AlamarBlue viability); format: cell-based
Experimental: Samples were stored at 4° C. protected from light. […] All data are shown as mean±SD (where appropriate). […] Laser and LED exposure induce an equivalent response in relation to phototoxicity. Following activation, cells were cultured for a further 24 hours. Media was then replaced with fresh media containing AlamarBlue, and % viable cells remaining assessed as above. Controls included cells treated with reduced chlorin analogues but not activated by laser light; cells without reduced chlorin analogue treatment but with laser light; and untreated controls. All measurements were made in quadruplicate.

[2] = system: Human ovarian cancer cell line SKOV3; assay: Inherent cytotoxicity (dark toxicity) in SKOV3 cells (AlamarBlue viability); format: cell-based
Experimental: Photosensitizers (e.g. chlorin analogue, chlorin e4 disodium (provided by Advanced Molecular Technologies, Scoresby) or Talaporfin sodium (purchased from Focus Bioscience cat #HY-16477-5MG)) were resuspended in 100% dimethylsulfoxide (DMSO) at a concentration of 5.5 mM. Samples were stored at 4° C. protected from light.
All data are shown as mean±SD (where appropriate).
Untreated cells were used as a control. […] All measurements were made in quadruplicate.

[3] = SKOV3 cells, 24 hours incubation, no light activation
[4] = Homo sapiens, SK-OV-3, light or radiation study, SKOV3 cells, 24 hours uptake, 660 nm laser, 50 mW/cm^2 for 5 mins (15 J/cm^2), viability 24 hours after activation, read-out: Phototoxicity μM (IC90)
[5] = SKOV3 cells, vs phyllochlorin free acid / phyllochlorin sodium salt
[6] = Homo sapiens, SK-OV-3, light or radiation study, SKOV3 cancer cells, laser or LED, read-out: phototoxicity IC90
[7] = Homo sapiens, SK-OV-3, light or radiation study, SKOV3 cells, 24 hours uptake, 660 nm LED panel, 50 mW/cm^2 for 5 mins (15 J/cm^2), values marked *, read-out: Phototoxicity μM (IC90), measured by LED

Structure (SMILES) | IC90 [1, 4] [µM] | Dark toxicity μM (IC10) ([2]; human, 24 h) [µM] | further results
C=Cc1c(C)c2cc3nc(c(C)c4[nH]c(cc5nc(cc1[nH]2)C(C)=C5CC)c(C)c4C(=O)O)[C@@H](CCC(=O)O)[C@@H]3C [Chlorin e4 disodium, chlorin e4 disodium, reference compound] | – | – | IC90 ([1]; SKOV3 cells, 24 hours uptake, 660 nm laser, 50 mW/cm^2 for 5 mins (15 J/cm^2), viability 24 hours after activation, read-out: Phototoxicity μM (IC90)): 21.3 µM; Dark toxicity μM (IC10) [2, 3]: 40.23 µM
CCC1=C(C)c2cc3[nH]c(cc4nc(c(C)c5cc(C)c(cc1n2)[nH]5)[C@@H](CCC(=O)[O-])[C@@H]4C)c(C)c3CC.[Na+] [Compound 2, Reduced Phyllochlorin Sodium Salt] | 0.071 | – | increase in phototoxicity of meso-compound compared to non-meso analogue [1, 5]: 4.9 fold; Dark toxicity μM (IC10) [2, 3]: 47.840 µM; Dark toxicity compared to non-meso analogue [2, 5]: largely unaffected
CCC1=C(C)c2cc3[nH]c(cc4nc(c(C)c5cc(C)c(cc1n2)[nH]5)[C@@H](CCC(=O)N[C@H]1C(O)O[C@H](CO)[C@@H](O)[C@@H]1O)[C@@H]4C)c(C)c3CC (stereo partly shown) [Compound 3, Reduced Phyllochlorin 2-deoxyglucosamine-propylamide] | 0.043 | 13.330 | –
CCC1=C(C)c2cc3[nH]c(cc4nc(c(C)c5cc(C)c(cc1n2)[nH]5)[C@@H](CCC(=O)N(C)CCCS[C@@H]1O[C@H](CO)[C@@H](O)[C@H](O)[C@H]1O)[C@@H]4C)c(C)c3CC [Compound 4, Reduced Phyllochlorin β-D-1-thioglucose-N-methylpropylamide] | 0.068 | 2.780 | –
CCC1=C(C)c2cc3[nH]c(cc4nc(c(C)c5cc(C)c(cc1n2)[nH]5)[C@@H](CCC(=O)N(C)CCOCCO[C@@H]1O[C@H](CO)[C@@H](O)[C@H](O)[C@H]1O)[C@@H]4C)c(C)c3CC [Compound 5, Reduced Phyllochlorin β-D-1-glucose-N-methyl-2-ethoxy-N-ethanamine] | 0.102 | 18.440 | –
CCC1=C(C)c2cc3[nH]c(cc4nc(c(C)c5cc(C)c(cc1n2)[nH]5)[C@@H](CCC(=O)N(C)CCCO[C@@H]1O[C@H](CO)[C@@H](O)[C@H](O)[C@H]1O)[C@@H]4C)c(C)c3CC [Compound 9, Reduced Phyllochlorin β-D-glucosyl-N-methylpropylamide] | 0.098 | 12.780 | –
CCC1=C(C)c2cc3[nH]c(cc4nc(c(C)c5cc(C)c(cc1n2)[nH]5)[C@@H](CCC(=O)N(C)C[C@H](O)[C@@H](O)[C@H](O)[C@H](O)CO)[C@@H]4C)c(C)c3CC [Compound 10, Reduced Phyllochlorin N-meglumine-propylamide] | – | 4.905 | –
CCC1=C(C)c2cc3[nH]c(cc4nc(c(C)c5cc(C)c(cc1n2)[nH]5)[C@@H](CCC(=O)N(C)CCCOCCC[P+](c1ccccc1)(c1ccccc1)c1ccccc1)[C@@H]4C)c(C)c3CC [Compound 11] | 0.003 | 4.347 | IC90 [1, 6]: ≤ 0.01 µM; orders of magnitude greater phototoxicity compared to Talaporfin sodium ([1]; SKOV3 cells, IC90 compared): 4 orders of magnitude
CCC1=C(C)c2cc3[nH]c(cc4nc(c(C)c5cc(C)c(cc1n2)[nH]5)[C@@H](CCC(=O)N(C)CCOCCOCCO)[C@@H]4C)c(C)c3CC [Compound 12, Reduced Phyllochlorin N-(2-(2-(2-hydroxyethoxy)ethoxy)ethyl)-N-methyl-3-amide] | 0.078 | 5.975 | –
CCC1=C(C)c2cc3[nH]c(cc4nc(c(C)c5cc(C)c(cc1n2)[nH]5)[C@@H](CCC(=O)N(C)CCOCCOCC[n+]1ccccc1)[C@@H]4C)c(C)c3CC [Compound 13, Reduced Phyllochlorin N-(2-(2-(2-pyridiniumethoxy)ethoxy)ethyl)-N-methyl-3-amide chloride] | 0.006 | 1.260 | IC90 [1, 6]: ≤ 0.01 µM
CCC1=C(C)c2cc3[nH]c(cc4nc(c(C)c5cc(C)c(cc1n2)[nH]5)[C@@H](CCC(=O)N(C)CCOCCOCCOCCOCCOCCOC)[C@@H]4C)c(C)c3CC [Compound 14, Reduced Phyllochlorin N-methyl-N-3,6,9,12,15,18-hexaoxanonadecyl propylamide] | 0.161 | 3.940 | –
CCC1=C(C)c2cc3[nH]c(cc4nc(c(C)c5cc(C)c(cc1n2)[nH]5)[C@@H](CCC(=O)N[C@@H]1C(O)O[C@H](CO)[C@@H](O)[C@@H]1O)[C@@H]4C)c(C)c3CC (stereo partly drawn) [Compound 15, Reduced Phyllochlorin 2-deoxy-D-mannosamine-propylamide] | 0.07 | 5.400 | –
CCC1=C(C)c2cc3[nH]c(cc4nc(c(C)c5cc(C)c(cc1n2)[nH]5)[C@@H](CCC(=O)N(C)CCOCCOCC[P+](c1ccccc1)(c1ccccc1)c1ccccc1)[C@@H]4C)c(C)c3CC [Compound 16, Reduced Phyllochlorin N-(2-(2-(2-triphenylphosphoniumethoxy)ethoxy)ethyl)-N-methyl-3-amide chloride] | 0.011 | 3.205 | –
CCC1=C(C)c2cc3[nH]c(cc4nc(c(C)c5cc(C)c(cc1n2)[nH]5)[C@@H](CCC(=O)N(C)CCC[S+]([O-])[C@@H]1O[C@H](CO)[C@@H](O)[C@H](O)[C@H]1O)[C@@H]4C)c(C)c3CC (stereo partly drawn) [Compound 17, Reduced Phyllochlorin β-D-1-thioglucose-N-methylpropylamide sulfoxide] | 0.174 | 4.752 | –
CCC1=C(C)c2cc3[nH]c(cc4nc(c(C)c5cc(C)c(cc1n2)[nH]5)[C@@H](CCCN)[C@@H]4C)c(C)c3CC [Compound 18, Reduced Phyllochlorin 3-aminopropyl] | 0.01 | 3.946 | IC90 [1, 6]: ≤ 0.01 µM
CCC1=C(C)c2cc3[nH]c(cc4nc(c(C)c5cc(C)c(cc1n2)[nH]5)[C@@H](CCC(=O)N(C)CCO)[C@@H]4C)c(C)c3CC [Compound 19, Reduced Phyllochlorin N-2-hydroxyethyl-N-methyl propylamide] | 0.061 | 15.940 | –
CCC1=C(C)c2cc3[nH]c(cc4nc(c(C)c5cc(C)c(cc1n2)[nH]5)[C@@H](CCCO)[C@@H]4C)c(C)c3CC [Compound 20, Reduced Phyllochlorin 3-hydroxypropyl] | 0.063 | 5.825 | –
CCC1=C(C)c2cc3[nH]c(cc4nc(c(C)c5cc(C)c(cc1n2)[nH]5)[C@@H](CCC(=O)N(C)CCCCCCCCCC[P+](c1ccccc1)(c1ccccc1)c1ccccc1)[C@@H]4C)c(C)c3CC [Compound 21, Reduced Phyllochlorin ((methylamino)-10-decyl)triphenylphosphonium Chloride Propylamide] | 0.022 | 1.465 | –
CCC1=C(C)c2cc3[nH]c(cc4nc(c(C)c5cc(C)c(cc1n2)[nH]5)[C@@H](CCC(=O)N(C)CCCO)[C@@H]4C)c(C)c3CC [Compound 22, Reduced Phyllochlorin N-3-hydroxypropyl-N-methyl Propylamide] | 0.042 | 4.348 | –
CCC1=C(C)c2cc3[nH]c(cc4nc(c(C)c5cc(C)c(cc1n2)[nH]5)[C@@H](CCC(=O)N(C)CCCCCO)[C@@H]4C)c(C)c3CC [Compound 23, Reduced Phyllochlorin N-5-hydroxypentyl-N-methyl Propylamide] | 0.064 | 4.540 | –
CCC1=C(C)c2cc3[nH]c(cc4nc(c(C)c5cc(C)c(cc1n2)[nH]5)[C@@H](CCC(=O)N[C@H]1C(O)O[C@H](CO)[C@H](O)[C@@H]1O)[C@@H]4C)c(C)c3CC (stereo partly drawn) [Compound 24, Reduced Phyllochlorin 2-deoxy-D-galactosamine-propylamide] | 0.049 | 7.011 | –
CCC1=C(C)c2cc3[nH]c(cc4nc(c(C)c5cc(C)c(cc1n2)[nH]5)[C@@H](CCC(=O)N[C@@H](CCCCN)C(=O)N[C@@H](CCCCN)C(=O)N[C@@H](CCCCN)C(=O)N[C@@H](CCCCN)C(=O)N[C@@H](CCCCN)C(=O)N(C)C)[C@@H]4C)c(C)c3CC [Compound 26, Reduced Phyllochlorin lysyl-lysyl-lysyl-lysyl-lysyl Dimethylamide Propylamide Pentahydrochloride] (X1-KKKKK-NMe2) | 0.494 | – | Dark toxicity μM (IC10) [2, 3]: 14.670 µM
CCC1=C(C)c2cc3[nH]c(cc4nc(c(C)c5cc(C)c(cc1n2)[nH]5)[C@@H](CCC[P+](c1ccccc1)(c1ccccc1)c1ccccc1)[C@@H]4C)c(C)c3CC [Compound 27, Reduced Phyllochlorin 3-triphenylphosphonium Propyl Iodide] | – | 1.326 | IC90 [1, 6]: ≤ 0.01 µM; IC90 [1, 7]: 0.0055 µM
CCC1=C(C)c2cc3[nH]c(cc4nc(c(C)c5cc(C)c(cc1n2)[nH]5)[C@@H](CCC(=O)N[C@@H](CCCCN)C(=O)N(C)C)[C@@H]4C)c(C)c3CC [Compound 31, Reduced Phyllochlorin N-Lysyl Dimethylamide Propylamide Hydrochloride] | – | 8.850 | IC90 [1, 7]: 0.011 µM
C=Cc1c(C)c2cc3nc(c(CC(=O)N[C@@H](CC(=O)O)C(=O)O)c4[nH]c(cc5nc(cc1[nH]2)C(C)=C5CC)c(C)c4C(=O)O)[C@@H](CCC(=O)O)[C@@H]3C [Talaporfin sodium, reference compound] | – | 11.10 | –
